Test results taken from the supplement of paper PMC10307832.

Columns and labels:
Experiment in all cases: relative viability (nuclei count vs DMSO), 5 days (fraction); higher = more cells survive
[1] = compound: Cn1cncc1[C@@](N)(c1ccc(Cl)cc1)c1ccc2c(c1)c(-c1cccc(Cl)c1)cc(=O)n2C [Tipifarnib] + CC1(C)CCC(c2ccc(Cl)cc2)=C(CN2CCN(c3ccc(C(=O)NS(=O)(=O)c4ccc(N[C@H](CCN5CCOCC5)CSc5ccccc5)c(S(=O)(=O)C(F)(F)F)c4)cc3)CC2)C1 [Navitoclax] (partner 0.5 µM)
Outline: (§1)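 Nuclei were stained with Hoechst during a one-step fixation (final 0.05% Triton X-100, 1% formaldehyde, 1 ug/ml Hoechst) carried out 5 days after dosing, then counted on 4× images. The cells, lung cancer lines in 1536-well plates, had been dosed by pin tool the day after seeding with one drug alone or a fixed anchor-drug dose plus five library-drug doses (not always all listed) in √10 steps. Relative viability is the nuclei count in treated wells divided by that in vehicle wells, and each value is the median of duplicate plates.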

[2] = compound: Cn1cncc1[C@@](N)(c1ccc(Cl)cc1)c1ccc2c(c1)c(-c1cccc(Cl)c1)cc(=O)n2C [Tipifarnib] + C[C@@H](Oc1cc(-c2cnn(C3CCNCC3)c2)cnc1N)c1c(Cl)ccc(F)c1Cl [Crizotinib] (partner 1 µM)
Outline: as §1

[3] = compound: Cn1cncc1[C@@](N)(c1ccc(Cl)cc1)c1ccc2c(c1)c(-c1cccc(Cl)c1)cc(=O)n2C [Tipifarnib] + Cc1nc(Nc2ncc(C(=O)Nc3c(C)cccc3Cl)s2)cc(N2CCN(CCO)CC2)n1 [Dasatinib] (partner 0.075 µM)
Outline: as §1

[4] = compound: Cn1cncc1[C@@](N)(c1ccc(Cl)cc1)c1ccc2c(c1)c(-c1cccc(Cl)c1)cc(=O)n2C [Tipifarnib] + O=C(CCCCCCC(=O)Nc1ccccc1)NO [Vorinostat] (partner 1 µM)
Outline: as §1

Cell Line	relative viability ([1]; first compound 0.01 µM)	relative viability ([1]; first compound 0.03162 µM)	relative viability ([1]; first compound 0.1 µM)	relative viability ([1]; first compound 0.3162 µM)	relative viability ([1]; first compound 1 µM)	relative viability ([2]; first compound 0.01 µM)	relative viability ([2]; first compound 0.03162 µM)	relative viability ([2]; first compound 0.1 µM)	relative viability ([2]; first compound 0.3162 µM)	relative viability ([2]; first compound 1 µM)	relative viability ([3]; first compound 0.01 µM)	relative viability ([3]; first compound 0.03162 µM)	relative viability ([3]; first compound 0.1 µM)	relative viability ([3]; first compound 0.3162 µM)	relative viability ([3]; first compound 1 µM)	relative viability ([4]; first compound 0.01 µM)	relative viability ([4]; first compound 0.03162 µM)	relative viability ([4]; first compound 0.1 µM)	relative viability ([4]; first compound 0.3162 µM)	relative viability ([4]; first compound 1 µM)
H3255	0.546	0.568	0.496	0.35	0.299	0.834	0.9	0.708	0.519	0.543	0.3	0.375	0.421	0.463	0.344	0.863	0.702	0.671	0.576	0.488
EPLC-272H	1.34	0.908	1.07	0.837	0.741	1	0.722	0.766	0.64	0.265	0.417	0.285	0.296	0.304	0.158	0.4	0.457	0.371	0.233	0.139
PC-3 [JPC-3]	0.814	0.648	0.749	0.532	0.416	1.04	0.928	0.88	0.828	0.709	1.01	0.994	0.99	0.679	0.532	0.823	0.674	0.529	0.426	0.386
NCI-H1793	0.409	0.481	0.441	0.373	0.353						0.455	0.43	0.34	0.246	0.243	0.635	0.643	0.737	0.404	0.292
EKVX	1.01	0.861	0.841	0.744	0.49	0.932	0.936	0.733	0.618	0.581	0.543	0.613	0.512	0.508	0.641	0.76	0.634	0.549	0.439	0.53
ChaGo-K-1	1.07	1.11	1.09	0.933	0.626	1.12	1.23	0.762	0.992	0.484	0.622	0.56	0.589	0.525	0.324	0.772	0.706	0.752	0.691	0.297
NCI-H23	1.11	0.883	0.657	0.562	0.406	0.579	0.491	0.386	0.311	0.249	0.76	0.711	0.667	0.473	0.282	0.543	0.31	0.299	0.205	0.167
EMC-BAC-2	1.2	1.12	1.06	0.993	0.816	0.737	0.621	0.659	0.534	0.526	0.324	0.336	0.319	0.305	0.258	0.355	0.386	0.233	0.338	0.191
LOU-NH91	0.682	0.633	0.663	0.483	0.398	0.741	0.752	0.695	0.619	0.646	0.53	0.505	0.507	0.451	0.338	0.897	0.53	0.749	0.747	0.458
LU99A	0.668	0.618	0.488	0.455	0.356	0.5	0.407	0.353	0.337	0.34	0.68	0.524	0.432	0.205	0.306	0.389	0.385	0.327	0.271	0.277
NCI-H1395	1.17	0.936	0.978	0.835	0.799						0.421	0.348	0.342	0.34	0.381	0.673	0.53	0.603	0.523	0.393
NCI-H460	1.13	0.905	0.531	0.252	0.0922	1.12	0.249	0.133	0.0704	0.0599	0.512	0.514	0.307	0.146	0.0594	0.734	0.329	0.283	0.116	0.116
201T	1.21	1.23	1.2	1.15	1.18	1.05	0.909	0.987	0.954	0.885	0.572	0.619	0.582	0.58	0.498	1.04	0.965	0.908	0.839	0.583
NCI-H1944	1.18	0.826	0.913	0.519	0.524	1.12	0.92	0.624	0.568	0.609	0.213	0.173	0.161	0.17	0.169	0.509	0.382	0.309	0.289	0.285
NCI-H2405	1.01	0.86	0.961	0.8	0.537	0.896	0.827	0.837	0.804	0.712	0.188	0.208	0.219	0.228	0.217	1.12	0.967	0.817	0.881	0.547
NCI-H1703	1.1	0.563	0.27	0.359	0.364	0.311	0.291	0.171	0.155	0.196										
NCI-H1755	1.02	0.971	0.968	0.776	0.851	0.83	0.79	0.818	0.742	0.688	0.477	0.39	0.365	0.348	0.271	0.75	0.764	0.781	0.739	0.596
NCI-H2087	0.918	0.559	0.407	0.411	0.467	0.529	0.534	0.268	0.438	0.377	0.764	0.405	0.289	0.264	0.21	0.668	0.363	0.292	0.248	0.222
NCI-H2228	0.878	0.71	1.06	0.735	0.527	0.413	0.443	0.45	0.293	0.348	0.531	0.52	0.456	0.266	0.184	0.398	0.453	0.493	0.314	0.3

Cell Line	relative viability ([1]; first compound 0.01 µM)	relative viability ([1]; first compound 0.03162 µM)	relative viability ([1]; first compound 0.1 µM)	relative viability ([1]; first compound 0.3162 µM)	relative viability ([1]; first compound 1 µM)	relative viability ([2]; first compound 0.01 µM)	relative viability ([2]; first compound 0.03162 µM)	relative viability ([2]; first compound 0.1 µM)	relative viability ([2]; first compound 0.3162 µM)	relative viability ([2]; first compound 1 µM)	relative viability ([3]; first compound 0.01 µM)	relative viability ([3]; first compound 0.03162 µM)	relative viability ([3]; first compound 0.1 µM)	relative viability ([3]; first compound 0.3162 µM)	relative viability ([3]; first compound 1 µM)	relative viability ([4]; first compound 0.01 µM)	relative viability ([4]; first compound 0.03162 µM)	relative viability ([4]; first compound 0.1 µM)	relative viability ([4]; first compound 0.3162 µM)	relative viability ([4]; first compound 1 µM)
NCI-H727	0.622	0.53	0.421	0.41	0.277	0.958	0.838	0.746	0.695	0.675	0.443	0.422	0.421	0.503	0.62	1.15	1.22	1.18	1.32	0.91
NCI-H650						0.773	0.679	0.442	0.437	0.345	0.421	0.375	0.366	0.284	0.266	0.366	0.325	0.346	0.249	0.189
NCI-H520	1.24	1.03	0.917	0.965	0.72	1.05	0.598	0.645	0.341	0.345	0.163	0.185	0.183	0.163	0.142	0.781	0.695	0.599	0.515	0.47
EBC-1	0.27	0.187	0.207	0.143	0.186	0.195	0.198	0.215	0.206	0.172										
NCI-H661						1.02	0.935	0.785	0.837	0.786	1.11	0.949	0.914	0.601	0.619	0.822	0.657	0.684	0.558	0.569
NCI-H1299	0.966	0.969	0.977	0.88	0.828	0.903	0.841	0.795	0.832	0.81										
LK-2	1.08	0.65	0.7	0.421	0.373	0.231	0.217	0.238	0.209	0.222	0.276	0.261	0.27	0.299	0.191	0.262	0.237	0.244	0.193	0.168
NCI-H1993	0.852	0.866	0.765	0.645	0.671	0.77	0.749	0.617	0.595	0.661	0.596	0.515	0.495	0.527	0.516	0.819	0.446	0.489	0.468	0.497
NCI-H838	1.09	0.978	0.932	0.854	0.862	0.694	0.538	0.434	0.434	0.433	0.322	0.296	0.233	0.263	0.237	0.665	0.646	0.606	0.568	0.588
NCI-H1648																0.356	0.394	0.419	0.384	0.372
LCLC-103H						1.01	1.01	0.893	0.87	0.85	0.47	0.441	0.426	0.345	0.328	0.676	0.707	0.68	0.533	0.611
SW 900											0.476	0.289	0.269	0.158	0.289	0.435	0.144	0.278	0.227	0.187
IA-LM	0.388	0.378	0.296	0.251	0.164	0.533	0.548	0.291	0.272	0.263							0.539	0.277	0.238	0.249
NCI-H1563						0.841	0.81	0.853	0.813	0.888	0.44	0.53	0.453	0.489	0.387					
HCC-44	1.06	0.944	0.784	0.726	0.696	0.749	0.698	0.599	0.576	0.568						0.963	1.04	1.01	0.903	0.881
NCI-H358						0.563	0.261	0.35	0.245	0.23	0.142	0.224	0.157	0.169	0.155	0.638	0.431	0.365	0.309	0.247
ABC-1						1.05		0.609	0.676	0.452	0.608		0.567	0.483	0.473	1.16	0.481	0.781	0.593	0.613
NCI-H522											0.95	0.912	0.861	0.82	0.788	0.908	0.761	0.835	0.776	0.806
NCI-H1792	0.717	0.583	0.466	0.364	0.108	1.02	0.888	0.742	0.54	0.438	1.01	0.821	0.571	0.524	0.484					
